molecular target: T1, human OX2 receptor (Homo sapiens, UniProt O43614); assay: Measurement of orexin type 2 receptor agonist activity (calcium fluorescence, Fluo-4 AM, FDSS); format: cell-based; details: compound at 3 μM; CHO cells forcibly expressing human OX2 receptor; DMSO = 0%, 10 nM orexin A (human) = 100%
T1 construct: expressed in transfected cells
T1 sequence (O43614 1-444): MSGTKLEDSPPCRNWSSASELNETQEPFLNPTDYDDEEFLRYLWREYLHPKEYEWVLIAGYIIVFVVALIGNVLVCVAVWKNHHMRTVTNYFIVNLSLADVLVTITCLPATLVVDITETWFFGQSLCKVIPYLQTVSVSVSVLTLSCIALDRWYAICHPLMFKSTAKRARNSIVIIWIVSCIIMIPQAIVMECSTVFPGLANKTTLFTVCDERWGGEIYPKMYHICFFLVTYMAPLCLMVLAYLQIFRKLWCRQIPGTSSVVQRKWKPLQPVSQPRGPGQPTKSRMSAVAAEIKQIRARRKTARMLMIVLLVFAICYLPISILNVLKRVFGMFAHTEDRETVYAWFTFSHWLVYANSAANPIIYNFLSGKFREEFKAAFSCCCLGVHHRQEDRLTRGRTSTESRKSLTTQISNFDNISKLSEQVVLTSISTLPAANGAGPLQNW
Outline: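 CHO-K1 cells stably expressing human OX2 receptor (residues 1-444) loaded with Fluo-4 AM in HBSS/20 mM HEPES/0.1% BSA with probenecid, 30 min at 37° C. then 30 min at room temperature. After compound addition, calcium fluorescence read for 1 min 40 s; activity (%) scaled to DMSO (0%) and 10 nM orexin A (100%).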

Row | OX2R agonist activity (3 μM, %) [%] | SMILES
1 | 92 | CCS(=O)(=O)N[C@@H]1CN(C2=NO[C@H](c3ncc(C)cc3-c3c(F)cc(F)cc3F)C2)C[C@@H]1F [Example 92, N-[(3R,4S)-4-fluoro-1-{(5S)-5-[5-methyl-3-(2,4,6-trifluorophenyl)pyridin-2-yl]-4,5-dihydro-1,2-oxazol-3-yl}pyrrolidin-3-yl]ethanesulfonamide]
2 | 99 | Cc1cnc(C2(CF)CC(N3C[C@@H](NS(C)(=O)=O)C(F)(F)C3)=NO2)c(-c2c(F)cc(F)cc2F)c1 (stereo partly drawn) [Example 93, N-[(3R)-4,4-difluoro-1-{5-(fluoromethyl)-5-[5-methyl-3-(2,4,6-trifluorophenyl)pyridin-2-yl]-4,5-dihydro-1,2-oxazol-3-yl}pyrrolidin-3-yl]methanesulfonamide]
3 | 99 | Cc1cnc(C2(C)CC(N3C[C@H](F)[C@H](NS(C)(=O)=O)C3)=NO2)c(-c2c(F)cccc2F)c1 (stereo partly drawn) [Example 96, N-[(3R,4S)-1-{5-[3-(2,6-difluorophenyl)-5-methylpyridin-2-yl]-5-methyl-4,5-dihydro-1,2-oxazol-3-yl}-4-fluoropyrrolidin-3-yl]methanesulfonamide]
4 | 103 | Cc1cnc([C@@H]2CC(N3C[C@H](F)[C@H](NS(=O)(=O)C4CC4)C3)=NO2)c(-c2c(F)cc(F)cc2F)c1 [Example 97, N-[(3R,4S)-4-fluoro-1-{(5S)-5-[5-methyl-3-(2,4,6-trifluorophenyl)pyridin-2-yl]-4,5-dihydro-1,2-oxazol-3-yl}pyrrolidin-3-yl]cyclopropanesulfonamide]
5 | 108 | O=S(=O)(N[C@@H]1CN(C2=NOC(c3ncc(Cl)cc3-c3c(F)cccc3F)C2)C[C@@H]1F)C1CC1 (stereo partly drawn) [Example 98, N-[(3R,4S)-1-{5-[5-chloro-3-(2,6-difluorophenyl)pyridin-2-yl]-4,5-dihydro-1,2-oxazol-3-yl}-4-fluoropyrrolidin-3-yl]cyclopropanesulfonamide]
6 | 101 | Cc1cnc([C@@H]2CC(N3CC[C@H](NS(=O)(=O)C(C)F)C3)=NO2)c(-c2c(F)cccc2F)c1 (stereo partly drawn) [Example 99, N-[(3S)-1-{(5S)-5-[3-(2,6-difluorophenyl)-5-methylpyridin-2-yl]-4,5-dihydro-1,2-oxazol-3-yl}pyrrolidin-3-yl]-1-fluoroethane-1-sulfonamide]
7 | 99 | Cc1cnc([C@@H]2CC(N3CC[C@H](NS(=O)(=O)C(C)F)C3)=NO2)c(-c2c(F)cc(F)cc2F)c1 (stereo partly drawn) [Example 100, 1-fluoro-N-[(3S)-1-{(5S)-5-[5-methyl-3-(2,4,6-trifluorophenyl)pyridin-2-yl]-4,5-dihydro-1,2-oxazol-3-yl}pyrrolidin-3-yl]ethane-1-sulfonamide]
8 | 98 | O=S(=O)(CF)N[C@H]1CCN(C2=NOC(c3ncc(Cl)cc3-c3c(F)cccc3F)C2)C1 (stereo partly drawn) [Example 101, N-[(3S)-1-{5-[5-chloro-3-(2,6-difluorophenyl)pyridin-2-yl]-4,5-dihydro-1,2-oxazol-3-yl}pyrrolidin-3-yl]-1-fluoromethanesulfonamide]
9 | 95 | O=S(=O)(CF)N[C@H]1CCN(C2=NOC(c3ncc(Br)cc3-c3c(F)cccc3F)C2)C1 (stereo partly drawn) [Example 102, N-[(3S)-1-{5-[5-bromo-3-(2,6-difluorophenyl)pyridin-2-yl]-4,5-dihydro-1,2-oxazol-3-yl}pyrrolidin-3-yl]-1-fluoromethanesulfonamide]
10 | 96 | CS(=O)(=O)N[C@@H]1CN(C2=NOC(c3ncc(Cl)cc3-c3c(F)cccc3F)C2)C[C@@H]1F (stereo partly drawn) [Example 103, N-[(3R,4S)-1-{5-[5-chloro-3-(2,6-difluorophenyl)pyridin-2-yl]-4,5-dihydro-1,2-oxazol-3-yl}-4-fluoropyrrolidin-3-yl]methanesulfonamide]

— patent publication US20240217957A1, “HETEROCYCLIC COMPOUND AND USE THEREOF” (TAKEDA PHARMACEUTICAL COMPANY LIMITED, priority 2022, published 2024)
